These results are taken from ChEMBL document CHEMBL1144797, “Synthesis and antimicrobial activity of 7 alpha-amino-23,24-bisnor-5 alpha-cholan-22-ol derivatives” (Bioorg Med Chem Lett, 2008).

Converted amounts (≈) assume the structure as drawn.

Series [1] relates to Streptococcus pyogenes. In words: Antimicrobial activity against Streptococcus pyogenes 308A. The class given is functional.
In series [2] the test system is Streptococcus pyogenes. Nature of the series: Antimicrobial activity against Streptococcus pyogenes 77A. The class given is functional.
Series [3] deals with Staphylococcus aureus. Nature of the series: Antimicrobial activity against Staphylococcus aureus 503. The class given is functional.
Series [4] deals with Escherichia coli. In words: Antimicrobial activity against Escherichia coli DC2. The class given is functional.
The test system of series [5] is Pseudomonas aeruginosa. In words: Antimicrobial activity against Pseudomonas aeruginosa 9027. The class given is functional.
For series [6], the system named is Pseudomonas aeruginosa. Nature of the series: Antimicrobial activity against Pseudomonas aeruginosa 1771M. The class given is functional.
The subject of series [7] is Salmonella typhimurium. Nature of the series: Antimicrobial activity against Salmonella Typhimurium. The conditions noted are these: Salmonella enterica. The class given is functional, Salmonella enterica subsp. enterica serovar Typhimurium.
Series [8] relates to Enterobacter cloacae. In words: Antimicrobial activity against Enterobacter cloacae 1321E. The class given is functional.
Series [9] is described as follows: Hemolytic activity against RBC at 100 ug/ml. The conditions noted are these: erythrocyte. The class given is ADME, cell-based.

`C[C@H](CO)[C@H]1CC[C@H]2[C@@H]3[C@H](N)C[C@H]4C[C@H](NCCCNCCCCNCCCN)CC[C@]4(C)[C@H]3CC[C@]12C.Cl.Cl.Cl.Cl.Cl`: the MIC is 6.3 µg/mL in series [1]; 25 µg/mL in [2]; 12.5 µg/mL in series [3]; 50 µg/mL in [4]; 12.5 µg/mL in series [5]; 25 µg/mL in [6]. The MIC in series [7] and in series [8] was > 100 µg/mL in each case.
`C[C@H](CO)[C@H]1CC[C@H]2[C@@H]3[C@H](O)C[C@H]4C[C@@H](NCCCNCCCCN)CC[C@]4(C)[C@H]3CC[C@]12C.Cl.Cl.Cl`: the minimum inhibitory concentration (MIC) in series [1] worked out at 25 µg/mL; in series [2] it was 25 µg/mL; in series [3], 12.5 µg/mL; in [4], 25 µg/mL; in series [5] it was 12.5 µg/mL; in series [6], 25 µg/mL. In addition, the MIC in series [7] and in [8] was 50 µg/mL throughout.
For the compound `C[C@H](COS(=O)(=O)O)[C@H]1CC[C@H]2[C@@H]3[C@H](N)C[C@H]4C[C@H](NCCCNCCCCN)CC[C@]4(C)[C@H]3CC[C@]12C.Cl.Cl.Cl.Cl`, the MIC in series [1] is 6.3 µg/mL; in [2], 12.5 µg/mL; in [3] it was 6.3 µg/mL; in series [4], 25 µg/mL; in series [5] it was 12.5 µg/mL; in series [6], 50 µg/mL. In addition, the MIC in series [7] and in series [8] was > 100 µg/mL in each case.
With `C[C@H](CO)[C@H]1CC[C@H]2[C@@H]3[C@H](N)C[C@H]4C[C@@H](N)CC[C@]4(C)[C@H]3CC[C@]12C.Cl.Cl`, the MIC in series [1] is 6.3 µg/mL; in series [2], 6.3 µg/mL; in series [3], 6.3 µg/mL; in series [4], 25 µg/mL; in [5], > 100 µg/mL; in series [6], 50 µg/mL. In addition, the MIC in series [7] and in series [8] was 50 µg/mL each time.
For the compound `C[C@H](CO)[C@H]1CC[C@H]2[C@@H]3[C@H](N)C[C@H]4C[C@H](NCCCNCCCCN)CC[C@]4(C)[C@H]3CC[C@]12C.Cl.Cl.Cl.Cl`, the minimal inhibitory concentration (MIC) was 12.5 µg/mL in series [1]; 25 µg/mL in series [2]; 12.5 µg/mL in [3]; > 100 µg/mL in series [4]; 25 µg/mL in series [5]; > 100 µg/mL in series [6]. Further, the minimum inhibitory concentration (MIC) in series [7] and in series [8] was > 100 µg/mL in each case.
In the case of `CC(C)[C@H]1CC[C@H]2[C@@H]3[C@H](O)C[C@H]4CC(N)CC[C@]4(C)[C@H]3CC[C@]12C` (stereo not given in full), the minimal inhibitory concentration (MIC) in series [1], in [2], in [3], in series [4], in series [5] and in series [6] was 100 µg/mL (≈ 300 µM) throughout. The MIC in [7] and in series [8] was 100 µg/mL (≈ 300 µM) each time.
Consider `C[C@H](CO)[C@H]1CC[C@H]2[C@@H]3[C@H](N)C[C@H]4C[C@@H](O)CC[C@]4(C)[C@H]3CC[C@]12C.Cl`, for which the MIC was 6.3 µg/mL in series [1]; 12.5 µg/mL in [2]; 12.5 µg/mL in series [3]; 25 µg/mL in series [4]; > 100 µg/mL in series [5]; > 100 µg/mL in series [6]. Besides, the MIC in series [7] and in [8] was > 100 µg/mL each time.
In the case of `C[C@H](CO)[C@H]1CC[C@H]2[C@@H]3[C@H](N)C[C@H]4C[C@@H](NCCCNCCCCNCCCN)CC[C@]4(C)[C@H]3CC[C@]12C.Cl.Cl.Cl.Cl.Cl`, the MIC was 3.1 µg/mL in series [1]; 25 µg/mL in [2]; 6.3 µg/mL in series [3]; 50 µg/mL in series [4]; 6.3 µg/mL in series [5]; 50 µg/mL in series [6]. Moreover, the MIC in [7] and in series [8] was > 100 µg/mL each time.
Take `C[C@H](CO)[C@H]1CC[C@H]2[C@@H]3[C@H](F)C[C@H]4C[C@@H](NCCCNCCCCN)CC[C@]4(C)[C@H]3CC[C@]12C.Cl.Cl.Cl`: the MIC is 6.3 µg/mL in series [1]; 6.3 µg/mL in series [2]; 6.3 µg/mL in series [3]; 6.3 µg/mL in series [4]; 6.3 µg/mL in series [5]; 3.1 µg/mL in series [6]. Also, the MIC in series [7] and in [8] was > 100 µg/mL each time.
On to `C[C@H](CO)[C@H]1CC[C@H]2[C@@H]3[C@H](N)C[C@H]4C[C@H](O)CC[C@]4(C)[C@H]3CC[C@]12C.Cl`, for which the minimal inhibitory concentration (MIC) in [1] is 3.1 µg/mL; in series [2], 6.3 µg/mL; in series [3] it was 3.1 µg/mL; in series [4], 12.5 µg/mL; in series [5], > 100 µg/mL; in [6] it was > 100 µg/mL. Also, the minimal inhibitory concentration (MIC) in series [7] and in [8] was > 100 µg/mL throughout. Also, in [9], the outcome was Active.
In the case of `C[C@H](COS(=O)(=O)O)[C@H]1CC[C@H]2[C@@H]3[C@H](N)C[C@H]4C[C@@H](NCCCNCCCCN)CC[C@]4(C)[C@H]3CC[C@]12C.Cl.Cl.Cl.Cl`, the minimum inhibitory concentration (MIC) is 25 µg/mL in [1]; 50 µg/mL in series [2]; 25 µg/mL in [3]; > 100 µg/mL in series [4]; > 100 µg/mL in [5]; > 100 µg/mL in series [6]. Moreover, the MIC in series [7] and in [8] was > 100 µg/mL in each case.
`C[C@H](CO)[C@H]1CC[C@H]2[C@@H]3[C@H](N)C[C@H]4C[C@H](N)CC[C@]4(C)[C@H]3CC[C@]12C.Cl.Cl`: the minimal inhibitory concentration (MIC) was 1.6 µg/mL in [1]; 3.1 µg/mL in series [2]; 3.1 µg/mL in series [3]; 12.5 µg/mL in [4]; 50 µg/mL in series [5]; 25 µg/mL in series [6]. For the same compound, the MIC was determined as 25 µg/mL in [7] and 50 µg/mL in series [8].
Take `C[C@H](CO)[C@H]1CC[C@H]2[C@@H]3[C@H](N)C[C@H]4C[C@@H](NCCCNCCCCN)CC[C@]4(C)[C@H]3CC[C@]12C.Cl.Cl.Cl.Cl`: the MIC in [1] is 12.5 µg/mL; in series [2] it was 25 µg/mL; in [3], 12.5 µg/mL; in [4] it was 50 µg/mL; in series [5], 25 µg/mL; in series [6] it was > 100 µg/mL. The minimal inhibitory concentration (MIC) in series [7] and in series [8] was > 100 µg/mL in each case.

By MIC is commonly meant the least concentration at which growth counts as inhibited. A lower MIC goes with greater potency.
